Measurements as given in patent US7601863B2, “Use of PPAR agonists for the treatment of congestive heart failure” (sanofi-aventis Deutschland GmbH, priority 2004, dated 2009).

Key:
[1] = system: rats with chronic ligation of the left coronary artery (myocardial infarction, heart failure); assay: Dose response in chronic myocardial infarction: lung weight and isolated working heart after 8 weeks of treatment; format: in vivo, Male Sprague Dawley rats; conditions: for Lung weight / Cardiac output / LV dP/dtmax / LV dP/dtmin: MI, 8 weeks, mean ± sem; for Cardiac output / LV dP/dtmax / LV dP/dtmin: working heart, afterload 80 mmHg
Experimental: At the end of the treatment period, cardiac function was measured using an isolated working heart preparation (modified Langendorff apparatus, cf. Linz et al., J. Ren. Angiotensin Aldosterone Syst., 2003): The hearts were perfused according to Langendorff's method with an oxygenated (95% O2, 5% CO2) noncirculating Krebs-Henseleit solution of the following compositions (mmol/L): NaCl, 118; KCl, 4.7; CaCl2, 2.5; MgSO4, 1.6; NaHCO3, 24.9; KH2PO4, 1.2; glucose, 5.5; Na-pyruvate, 2.0. The left atrium was cannulated by an incision of the left auricle. After a 15-minute equilibration period at a fixed perfusion pressure of 60 mmHg, the heart was switched into the working mode at a fixed filling pressure of 11 mm Hg. Then, afterload pressure was varied stepwise every two minutes from 40 to 140 mmHg. Data in the table are representative and given for a constant afterload pressure of 80 mmHg. Flow and pressure signals were sampled at 500 Hz, averaged every 2 seconds. Cardiac output measures the overall capacity of the heart to pump the blood through the body. LV dP/dtmax is an index of myocardial contractility, i.e. the force generating ability of the heart; LV dP/dtmin is an index of the ability of the myocardium to relax. In addition, lung weight was measured as an index of pulmonary congestion, an indirect sign of CHF.
Male Sprague Dawley rats were pre-treated with a chronic ligation of the left coronary artery, in order to produce a myocardial infarction (MI) and subsequent development of heart failure: Treatment with a compound of the formula (I) (pressed in chow, resulting in different daily doses) was initiated on the day after myocardial infarction. After 8 weeks of treatment, the animals were killed, the lung was weighed, and the function of the isolated heart was analyzed ex vivo in the working heart mode, in the same manner as described for Example 1 (vide supra). This method allows to assess different aspects of the myocardial function. For comparison against the effect of an established therapeutic principle in the present experimental series, the dual ACE/NEP, or vasopeptidase, inhibitor (7-(2-Acetylsulfanyl-3-methyl-butyrylamino)-6-oxo-1,2,3,4,6,7,8,12b-octahydro-benzo[c]pyrido[1,2-a]azepine-4-carboxylic acid; international patent application no. WO 02/083671) that is known for being active in the treatment of CHF was applied in an additional group.

[2] = system: rat model of chronic coronary artery ligation (myocardial infarction, congestive heart failure); assay: Proof of concept study: chronic heart failure after permanent left coronary artery occlusion; lung weight and isolated working heart after eight weeks of treatment; format: in vivo, Male Wistar rats; conditions: for Lung weight / Cardiac output / LV dP/dtmax / LV dP/dtmin: MI, eight weeks, mean ± sem; for Cardiac output / LV dP/dtmax / LV dP/dtmin: working heart, afterload 80 mmHg
From the text: In order to test the effect of specific activation of either PPARγ (rosiglitazone) or PPARα (compound of formula (I), (II) and (III)) on the improvement of CHF, a rat model of chronic coronary artery ligation was used because myocardial infarction is the most common cause for CHF in the industrialized countries.
Male Wistar rats were housed three per cage under standardized conditions of temperature, humidity, and light. They had free access to a standardized diet (sodium content 0.2%, Altromin, Lage, Germany) and tap drinking water. Chronic heart failure was induced by a permanent occlusion of the left coronary artery approximately 2 mm distal to its origin from the aorta resulting in a large infarction of the free left ventricular wall. Chronic treatment was initiated on the day after production of the myocardial infarction and continued for eight weeks.
The left atrium was cannulated by an incision of the left auricle. After a 15-minute equilibration period at a fixed perfusion pressure of 60 mmHg, the heart was switched into the working mode at a fixed filling pressure of 11 mm Hg. Then, afterload pressure was varied stepwise every two minutes from 40 to 140 mmHg. […] Flow and pressure signals were sampled at 500 Hz, averaged every 2 seconds. Cardiac output measures the overall capacity of the heart to pump the blood through the body. LV dP/dtmax is an index of myocardial contractility, i.e. the force generating ability of the heart; LV dP/dtmin is an index of the ability of the myocardium to relax. In addition, lung weight was measured as an index of pulmonary congestion, an indirect sign of CHF.
Treatment with a compound of the formula (I) (pressed in chow, resulting in a dose of 20 mg/kg/d) was initiated on the day after myocardial infarction. The pure PPARγ agonist rosiglitazone was used for comparison in an additional group (3 mg/kg/day in chow).

[3] = compound (I) 20 mg/kg/d in chow
[4] = rosiglitazone 3 mg/kg/d in chow

Cc1cccc(COCCCOCc2coc(-c3ccccc3)n2)c1C(=O)O [compound (I), 2-methyl-6-[3-(2-phenyloxazol-4-ylmethoxy)propoxymethyl] benzoic acid]
Effect of chronic treatment on heart failure (in words) ([1]; MI rats, 8 weeks in chow, different daily doses): improves different aspects of heart failure
Lung weight ([1]; 1 mg/kg/d in chow): 0.80 ± 0.08 g/100 g BW
Cardiac output ([1]; 1 mg/kg/d in chow): 12.5 ± 3.3 mL/min
LV dP/dtmax ([1]; 1 mg/kg/d in chow): 3280 ± 250 Mm Hg/s
LV dP/dtmin ([1]; 1 mg/kg/d in chow): 1886 ± 137 mm Hg/s
Lung weight ([1]; 3 mg/kg/d in chow): 0.54 ± 0.08 g/100 g BW
Cardiac output ([1]; 3 mg/kg/d in chow): 21.5 ± 5.4 mL/min
LV dP/dtmax ([1]; 3 mg/kg/d in chow): 3665 ± 166 Mm Hg/s
LV dP/dtmin ([1]; 3 mg/kg/d in chow): 2353 ± 77 mm Hg/s
Lung weight ([1]; 10 mg/kg/d in chow): 0.54 ± 0.09 g/100 g BW
Cardiac output ([1]; 10 mg/kg/d in chow): 21.0 ± 4.0 mL/min
LV dP/dtmax ([1]; 10 mg/kg/d in chow): 4043 ± 256 Mm Hg/s
LV dP/dtmin ([1]; 10 mg/kg/d in chow): 2339 ± 111 mm Hg/s
Effect of chronic treatment on heart failure (in words) ([2]; MI rats, eight weeks in chow, compound (I) 20 mg/kg/d, rosiglitazone 3 mg/kg/day): improves different aspects of heart failure
Lung weight [2, 3]: 1.62 ± 0.06 Gram
Cardiac output [2, 3]: 25.8 ± 4.3 mL/min
LV dP/dtmax [2, 3]: 4614 ± 253 mmHg/s
LV dP/dtmin [2, 3]: 2502 ± 77 mmHg/s

CC(=O)SC(C(=O)NC1Cc2ccccc2C2CCCC(C(=O)O)N2C1=O)C(C)C (centres unmarked) [VPI, 7-(2-Acetylsulfanyl-3-methyl-butyrylamino)-6-oxo-1,2,3,4,6,7,8,12b-octahydro-benzo[c]pyrido[1,2-a]azepine-4-carboxylic acid, reference compound]
Lung weight ([1]; 30 mg/kg/d): 0.56 ± 0.07 g/100 g BW
Cardiac output ([1]; 30 mg/kg/d): 27.2 ± 3.5 mL/min
LV dP/dtmax ([1]; 30 mg/kg/d): 3868 ± 172 Mm Hg/s
LV dP/dtmin ([1]; 30 mg/kg/d): 2379 ± 120 mm Hg/s

CN(CCOc1ccc(CC2SC(=O)NC2=O)cc1)c1ccccn1 (centres unmarked) [Rosiglitazone, rosiglitazone, reference compound]
Lung weight [2, 4]: 3.67 ± 0.38 Gram
Cardiac output [2, 4]: 10.2 ± 3.8 mL/min
LV dP/dtmax [2, 4]: 3491 ± 147 mmHg/s
LV dP/dtmin [2, 4]: 2081 ± 65 mmHg/s
